Test results published in patent US20030216569A1, “Method of making HIV protease inhibitors” (priority 1993, published 2003).

Target: HIV-1 protease (Human immunodeficiency virus type 1 group M subtype B, UniProt P04585)
Test: Fluorescence HIV-1 Protease Inhibitor Assay (Pandex)
Format: biochemical
Set-up: made in house; host or cells: E. coli K12 L507/pHP10D (NRRL B-18560)
Conditions: normalized to positive control (=1.0); * = a calculated average
Method: A. Preparation of Protease and Gag Fractions
Lyophils of E. coli K12 L507/pHP10D were obtained from the Northern Regional Research Laboratory, Peoria, Ill. 61604, under the accession number NRRL B-18560 (deposited Nov. 14, 1989). The lyophils were decanted into tubes containing 10 ml LB medium (10 g Bacto-tryptone, 5 g Bacto-yeast extract, and 10 g aqueous sodium chloride per liter; the pH was adjusted to 7.5 and incubated at 32° C. overnight).
A small portion of the overnight culture was placed on LB-agar (LB medium with 15 g/L Bacto-agar) plates containing 12.5 micrograms/ml tetracycline in a manner so as to obtain a single colony isolate of E. coli K12 L507/pHP10D. The single colony obtained was inoculated into 10 ml of LB medium containing 12.5 micrograms/ml tetracycline and incubated overnight at 32° C. with vigorous shaking. The 10 ml overnight culture was inoculated into LB medium containing 12.5 micrograms/ml tetracycline and incubated at 32° C. with vigorous shaking until the culture reached mid-log phase. […]
3. Preparation of Protease Fraction
A culture of E. coli K12 L507/pHP10D was grown to mid-log phase at 32° C. in LB media containing 12.5 micrograms/ml tetracycline. The cultivation temperature was quickly elevated to 40° C. to induce gene expression, and the cells were allowed to grow for 2.5 hours at this temperature before the culture was quickly chilled on ice. The cells were centrifuged and the cell pellet was resuspended in 20 ml of 50 mmol MES buffer (pH 6.0) containing 1 mmol EDTA, 1 mmol DTT, 1 mmol PMSF and 10% glycerol (“Buffer A”). Cells were lysed by sonication using a Fischer Model 300 Dismembrator and a microtip probe. Following centrifugation at 27,000×g, the supernatant was diluted to a total volume of 60 ml with Buffer A and loaded onto a 2.0×19 cm QAE-Sepharose column (1 ml/min, 4° C.), that had been equilibrated in Buffer A. The column was washed isocratically for 180 min and then eluted with a gradient eluent of […] aqueous sodium chloride in Buffer A over 120 min. Enzymatic activity was measured by HPLC using the synthetic peptide Ser-Gln-Asn-Tyr-Pro-Ile-Val as described in Margolin et al., Biochem. Biophys. Res. Commun., 167, 554-560 (1990); the production of the p1 peptide (Ser-Gln-Asn-Tyr) was measured.
The active fractions were combined, adjusted to […] 1.2M in ammonium sulfate, and applied to a 2.0×18 cm hexyl agarose column that had been equilibrated in Buffer A containing 1.2M ammonium sulfate. The sample was loaded at a flow rate of 1 ml/min at 4° C., washed with the equilibration buffer for 240 min (1 ml/min) and then eluted using a reverse linear gradient of 1.2-0M ammonium sulfate in Buffer A for 120 min at the same flow rate. The column was then washed isocratically in Buffer A for 120 min.
The active fractions were combined, concentrated to 10 ml using an Amicon stirred cell with a YM-10 membrane and then applied to a MonoS cation exchange column (1.0×10 cm) that had been equilibrated in Buffer A. The sample was loaded at a flow rate of 1 ml/min at 25° C. After washing isocratically for 30 min, the protease was eluted using a linear gradient of 0-0.45M aqueous sodium chloride in Buffer A over 40 min. The column was washed isocratically in Buffer A containing 0.45M aqueous sodium chloride for 30 minutes.
The active fractions were combined and concentrated to 200 microliters using an Amicon stirred cell and a YM-10 membrane and then the protease was applied to a Superose 6 size exclusion column equilibrated in Buffer A containing 0.1M aqueous sodium chloride.

Compound	Fluorescence Assay IC50 in ng/mL	Fluorescence Assay IC50 [µg/mL]
Cc1c(O)cccc1C(=O)N[C@@H](Cc1ccccc1)[C@H](O)CN1CCC[C@H]1C(=O)NC(C)(C)C (relative stereo) [Example 4, [2S-(2R*,2′S*,3′R*)]-1-[2′-Hydroxy-3′-phenylmethyl-4′-aza-5′-oxo-5′-(2″-methyl-3″-hydroxyphenyl)pentyl] pyrrolidine-2-N-t-butylcarboxamide]	1425* ng/mL	–
Cc1c(O)cccc1C(=O)N[C@@H](Cc1ccccc1)[C@H](O)CN1CCCC[C@H]1C(=O)NC(C)(C)C (relative stereo) [Example 6, [2S-(2R*,2′S*,3′R*)]-1-[2′-Hydroxy-3′-phenylmethyl-4′-aza-5′-oxo-5′-(2″methyl-3″-hydroxyphenyl)pentyl]piperidine-2-N-t-butylcarboxamide]	513* ng/mL	–
Cc1c(C(=O)N[C@@H](Cc2ccccc2)[C@H](O)CN2C[C@H]3CCCC[C@H]3C[C@H]2C(=O)NC(C)(C)C)cc[nH]c1=O (relative stereo) [Example 16, [3S-(3R*,4aR*,8aR*,2′S*,3′R*)]-2-[2′-Hydroxy-3′-phenylmethyl-4′-aza-5′-oxo-5′-(2″-oxo-3″-methyl-pyrid-4″-yl)pentyl] decahydroisoquinoline-3-N-t-butylcarboxamide]	–	0.329
Cc1ccc(CO)cc1C(=O)N[C@@H](Cc1ccccc1)[C@H](O)Cc1ccccc1C(=O)NC(C)(C)C (relative stereo) [Example 41, [2′R-(2′R*,3′S*)]-N-t-Butyl-2-[2′-hydroxy-3′-phenylmethyl-4′-aza-5′-oxo-5′-(2″methyl-5″-hydroxymethylphenyl)pentyl] benzamide]	–	0.006
CNc1cccc(C(=O)N[C@H](CSc2ccc3ccccc3c2)[C@H](O)Cc2ccccc2C(=O)NC(C)(C)C)c1C (relative stereo) [Example 43, [2′R-(2′R*,3′S*)]-N-t-Butyl-2-[2′-hydroxy-3′-naphth-2-ylthiomethyl-4′-aza-5′-oxo-5′-(2″-methyl-3″N(methyl)aminophenyl)pentyl] benzamide]	–	0.54
Cc1c(O)cccc1C(=O)N[C@H](CSc1ccc2ccccc2c1)[C@H](O)Cc1ccccc1C(=O)NC(C)(C)C (relative stereo) [Example 46, [2′R-(2′R*,3′S*)]-N-t-Butyl-2-[2′-hydroxy-3′-naphth-2-ylthiomethyl-4′-aza-5′-oxo-5′-(2″-methyl-3″-hydroxyphenyl)pentyl] benzamide]	–	0.063
Cc1ccc(N)cc1C(=O)N[C@H](CSc1ccc2ccccc2c1)[C@H](O)Cc1ccccc1C(=O)NC(C)(C)C (relative stereo) [Example 47, [2′R-(2′R*,3′S*)]-N-t-Butyl-2-[2′-hydroxy-3′-naphth-2-ylthiomethyl-4′-aza-5′-oxo-5′-(2″-methyl-5″-aminophenyl)pentyl] benzamide]	–	0.091
Cc1c(O)cccc1C(=O)N[C@H](CSc1ccc2ccccc2c1)[C@H](O)Cc1ccc2ccccc2c1C(=O)NC(C)(C)C (relative stereo) [Example 48, [2′R-(2′R*,3′S*)]-N-t-Butyl-2-[2′-hydroxy-3′-naphth-2-ylthiomethyl-4′-aza-5′-oxo-5′-(2″-methyl-3″-hydroxyohenyl)pentyl]-1-naphthylamide]	–	0.177
CC(C)(C)NC(=O)c1ccccc1C[C@@H](O)[C@@H](CSc1ccc2ccccc2c1)NC(=O)c1cccc(O)c1 (relative stereo) [Example 51, [2′R-(2′R*,3′S*)]-N-t-Butyl-2-[2′-hydroxy-3′-naphth-2-ylthiomethyl-4′-aza-5′-oxo-5′-(3″-hydroxyphenyl)pentyl] benzamide]	–	0.5
Cc1ccccc1C(=O)N[C@H](CSc1ccc2ccccc2c1)[C@H](O)Cc1ccccc1C(=O)NC(C)(C)C (relative stereo) [Example 52, [2′R-(2′R*,3′S*)]-N-t-Butyl-2-[2′-hydroxy-3′-naphth-2-ylthiomethyl-4′-aza-5′-oxo-5′-(2″-methylphenyl)pentyl] benzamide]	–	0.281
Cc1c(N)cc(N)cc1C(=O)N[C@H](CSc1ccc2ccccc2c1)[C@H](O)Cc1ccccc1C(=O)NC(C)(C)C (relative stereo) [Example 53, [2′R-(2′R*,3′S*)]-N-t-Butyl-2-[2′-hydroxy-3′-naphth-2-ylthiomethyl-4′-aza-5′-oxo-5′-(2″-methyl-3″,5″-diaminophenyl)pentyl] benzamide]	–	0.055
CC(C)(C)NC(=O)c1ccccc1C[C@@H](O)[C@@H](CSc1ccc2ccccc2c1)NC(=O)c1cccc(O)c1Cl (relative stereo) [Example 56, [2′R-(2′R*,3′S*)]-N-t-Butyl-2-[2′-hydroxy-3′-naphth-2-ylthiomethyl-4′-aza-5′-oxo-5′-(2″-chloro-3″-hydroxyphenyl)pentyl] benzamide]	–	0.094
Cc1ccc(O)cc1C(=O)N[C@H](CSc1ccc2ccccc2c1)[C@H](O)Cc1ccccc1C(=O)NC(C)(C)C (relative stereo) [Example 72, [2′R-(2′R*,3′S*)]-N-t-Butyl-2-[2′-hydroxy-3′-naphth-2-ylthiomethyl-4′-aza-5′-oxo-5′-(2″-methyl-5″-hydroxyphenyl)pentyl] benzamide]	–	0.63

Same assay, conditions: normalized to positive control (=1.0); * = a calculated average; read-out: Fluorescence Assay IC50 in ng/mL (converted)

Compound	IC50 [nM]
CC(C)(C)NC(=O)c1ccccc1C[C@@H](O)[C@H](CSc1ccc2ccccc2c1)NC(=O)c1cccc2cnccc12 (relative stereo) [Example 57, [2′R-(2′R*,3′S*)]-N-t-Butyl-2-[2′-hydroxy-3′-naphth-2-ylthiomethyl-4′-aza-5′-oxo-5′-(isoquinolin-5″-yl)pentyl] benzamide]	1380
CC(C)(C)NC(=O)c1ccccc1C[C@@H](O)[C@H](CSc1ccc2ccccc2c1)NC(=O)c1cccc2c1CCNC2 (relative stereo) [Example 58, [2′R-(2′R*,3′S*)]-N-t-Butyl-2-[2′-hydroxy-3′-naphth-2-ylthiomethyl-4′-aza-5′-oxo-5′-(1″,2″,3″,4″-tetrahydroisoquinolin-5″-yl)pentyl] benzamide]	309
CC(C)(C)NC(=O)c1ccccc1C[C@@H](O)[C@H](CSc1ccc2ccccc2c1)NC(=O)c1cccc2ncccc12 (relative stereo) [Example 63, [2′R-(2′R*,3′S*)]-N-t-Butyl-2-[2′-hydroxy-3′-naphth-2-ylthiomethyl-4′-aza-5′-oxo-5′-(quinolin-5″-yl)pentyl] benzamide]	433
CC(C)(C)NC(=O)c1ccccc1C[C@@H](O)[C@H](CSc1ccc2ccccc2c1)NC(=O)c1cccc2c1CCCN2 (relative stereo) [Example 64, [2′R-(2′R*,3′S*)]-N-t-Butyl-2-[2′-hydroxy-3′-naphth-2-ylthiomethyl-4′-aza-5′-oxo-5′-(1″,2″,3″,4″-tetrahydroquinolin-5″-yl)pentyl] benzamide]	194

Same assay, conditions: value as run; 35B value of the same run in footnote or parentheses

Compound	Pandex IC50 ng/ml
Cc1c(C(=O)N[C@@H](Cc2ccccc2)[C@H](O)CN2C[C@H]3CCCC[C@H]3C[C@H]2C(=O)NC(C)(C)C)cc[nH]c1=O (relative stereo) [Example 16, [3S-(3R*,4aR*,8aR*,2′S*,3′R*)]-2-[2′-Hydroxy-3′-phenylmethyl-4′-aza-5′-oxo-5′-(2″-oxo-3″-methyl-pyrid-4″-yl)pentyl] decahydroisoquinoline-3-N-t-butylcarboxamide]	125^e ng/ml

Same assay, conditions: value as run; 35B value of the same run in footnote or parentheses; read-out: Pandex IC50 ng/ml (converted)

Compound	IC50 [nM]
CC(=O)Oc1cccc(C(=O)N[C@@H](Cc2ccccc2)[C@H](O)CN2C[C@H]3CCCC[C@H]3C[C@H]2C(=O)NC(C)(C)C)c1C (relative stereo) [Example 82, [3S-(3R*, 4aR*, 8aR*, 2′S*, 3′R*)]-2-[2′-Hydroxy-3′-phenylmethyl-4′-aza-5′-oxo-5′-(2″-methyl-3″-(acetyl)hydroxyphenyl)pentyl]decahydroisoquinoline-3-N-t-butyl carboxamide]	325
